According to patent US20170198006A1, “PRMT5 INHIBITORS AND USES THEREOF” (Epizyme, Inc., priority 2014, published 2017):
pEC50, pIC50: −log10 of the molar value.

Assays:
PRMT5/MEP50 = target: T1, PRMT5/MEP50 (Homo sapiens, UniProt O14744); experiment: PRMT5 Biochemical Assay (PRMT5/MEP50 enzyme assay on histone H4 peptide substrate, 3H-SAM Flashplate); details: PRMT5 biochemical assay; read-out: Biochemical IC50
T1 construct: Flag-PRMT5; made in house; host or cells: Spodoptera frugiperda (SF9), baculovirus
In short: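 Sf9-expressed Flag-PRMT5/6His-MEP50 preincubated with compound 30 min at 25 °C, then methylation of biotinylated H4 1-15 peptide started with ³H-SAM in 20 mM Bicine pH 7.6, 1 mM TCEP, 0.005% BSG, 0.002% Tween20.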

[1] = system: symmetric di-methyl arginine in Z-138 cells; experiment: Z-138 Methylation Assay (In Cell Western for symmetric di-methyl arginine and DNA content); type: cell-based; details: Homo sapiens, read-out: ICW EC50
Excerpt: Z-138 suspension cells were purchased from ATCC (American Type Culture Collection, Manassas, Va.). RPMI/Glutamax medium, penicillin-streptomycin, heat inactivated fetal bovine serum, and D-PBS were purchased from Life Technologies, Grand Island, N.Y., USA. Odyssey blocking buffer, 800CW goat anti-rabbit IgG (H+L) antibody, and Licor Odyssey infrared scanner were purchased from Licor Biosciences, Lincoln, Nebr., USA. Symmetric di-methyl arginine antibody was purchased from EMD Millipore, Billerica, Mass., USA. 16% Paraformaldehyde was purchased from Electron Microscopy Sciences, Hatfield, Pa., USA.
Z-138 suspension cells were maintained in growth medium (RPMI 1640 supplemented with 10% v/v heat inactivated fetal bovine serum and 100 units/mL penicillin-streptomycin) and cultured at 37° C. under 5% CO2.
Cell Treatment, in Cell Western (ICW) for Detection of Symmetric Di-Methyl Arginine and DNA Content.
Z-138 cells were seeded in assay medium at a concentration of 50,000 cells per mL to a 384-well cell culture plate with 50 μL per well. Compound (100 nL) from 384 well source plates was added directly to 384 well cell plate. Plates were incubated at 37° C., 5% CO2 for 96 hours. After four days of incubation, 40 μL of cells from incubated plates were added to poly-D-lysine coated 384 well culture plates (BD Biosciences 356697). Plates were incubated at room temperature for 30 minutes then incubated at 37° C., 5% CO2 for 5 hours. After the incubation, 40 μL per well of 8% paraformaldehyde in PBS (16% paraformaldahyde was diluted to 8% in PBS) was added to each plate and incubated for 30 minutes. Plates were transferred to a Biotek 405 plate washer and washed 5 times with 100 μL per well of wash buffer (1×PBS with 0.1% Triton X-100 (v/v)). Next 30 μL per well of Odyssey blocking buffer were added to each plate and incubated 1 hour at room temperature. Blocking buffer was removed and 20 μL per well of primary antibody was added (symmetric di-methyl arginine diluted 1:100 in Odyssey buffer with 0.1% Tween 20 (v/v)) and plates were incubated overnight (16 hours) at 4° C. Plates were washed 5 times with 100 μL per well of wash buffer. Next 20 μL per well of secondary antibody was added (1:200 800CW goat anti-rabbit IgG (H+L) antibody, 1:1000 DRAQ5 (Biostatus limited) in Odyssey buffer with 0.1% Tween 20 (v/v)) and incubated for 1 hour at room temperature. The plates were washed 5 times with 100 μL per well wash buffer then 1 time with 100 μL per well of water. Plates were allowed to dry at room temperature then imaged on the Licor Odyssey machine which measures integrated intensity at 700 nm and 800 nm wavelengths. Both 700 and 800 channels were scanned.
First, the ratio for each well was determined by:
Each plate included fourteen control wells of DMSO only treatment (minimum inhibition) as well as fourteen control wells for maximum inhibition treated with 3 μM of a reference compound (Background wells). The average of the ratio values for each control type was calculated and used to determine the percent inhibition for each test well in the plate. Reference compound was serially diluted three-fold in DMSO for a total of nine test concentrations, beginning at 3 μM. Percent inhibition was determined and IC50 curves were generated using triplicate wells per concentration of compound.

Z-138 cells = experiment: Z-138 Proliferation Assay (Cell Titer Glo, 5 days); type: cell-based; details: Homo sapiens, 120 h
Excerpt: Z-138 Proliferation Assay
Z-138 suspension cells were purchased from ATCC (American Type Culture Collection, Manassas, Va.). RPMI/Glutamax medium, penicillin-streptomycin, heat inactivated fetal bovine serum were purchased from Life Technologies, Grand Island, N.Y., USA. V-bottom polypropylene 384-well plates were purchased from Greiner Bio-One, Monroe, N.C., USA. Cell culture 384-well white opaque plates were purchased from Perkin Elmer, Waltham, Mass., USA. Cell-Titer Glo® was purchased from Promega Corporation, Madison, Wis., USA. SpectraMax M5 plate reader was purchased from Molecular Devices LLC, Sunnyvale, Calif., USA.
Z-138 suspension cells were maintained in growth medium (RPMI 1640 supplemented with 10% v/v heat inactivated fetal bovine serum and cultured at 37° C. under 5% CO2. Under assay conditions, cells were incubated in assay medium (RPMI 1640 supplemented with 10% v/v heat inactivated fetal bovine serum and 100 units/mL penicillin-streptomycin) at 37° C. under 5% CO2.
For the assessment of the effect of compounds on the proliferation of the Z-138 cell line, exponentially growing cells were plated in 384-well white opaque plates at a density of 10,000 cells/ml in a final volume of 50 μl of assay medium. A compound source plate was prepared by performing triplicate nine-point 3-fold serial dilutions in DMSO, beginning at 10 mM (final top concentration of compound in the assay was 20 μM and the DMSO was 0.2%). A 100 nL aliquot from the compound stock plate was added to its respective well in the cell plate. […] After addition of compounds, assay plates were incubated for 5 days at 37° C., 5% CO2, relative humidity >90%.
Cell viability was measured by quantitation of ATP present in the cell cultures, adding 35 μl of Cell Titer Glo® reagent to the cell plates. Luminescence was read in the SpectraMax M5 microplate reader. The concentration of compound inhibiting cell viability by 50% was determined using a 4-parametric fit of the normalized dose response curves.

T1 sequence (O14744 with tags, fused parts or gaps): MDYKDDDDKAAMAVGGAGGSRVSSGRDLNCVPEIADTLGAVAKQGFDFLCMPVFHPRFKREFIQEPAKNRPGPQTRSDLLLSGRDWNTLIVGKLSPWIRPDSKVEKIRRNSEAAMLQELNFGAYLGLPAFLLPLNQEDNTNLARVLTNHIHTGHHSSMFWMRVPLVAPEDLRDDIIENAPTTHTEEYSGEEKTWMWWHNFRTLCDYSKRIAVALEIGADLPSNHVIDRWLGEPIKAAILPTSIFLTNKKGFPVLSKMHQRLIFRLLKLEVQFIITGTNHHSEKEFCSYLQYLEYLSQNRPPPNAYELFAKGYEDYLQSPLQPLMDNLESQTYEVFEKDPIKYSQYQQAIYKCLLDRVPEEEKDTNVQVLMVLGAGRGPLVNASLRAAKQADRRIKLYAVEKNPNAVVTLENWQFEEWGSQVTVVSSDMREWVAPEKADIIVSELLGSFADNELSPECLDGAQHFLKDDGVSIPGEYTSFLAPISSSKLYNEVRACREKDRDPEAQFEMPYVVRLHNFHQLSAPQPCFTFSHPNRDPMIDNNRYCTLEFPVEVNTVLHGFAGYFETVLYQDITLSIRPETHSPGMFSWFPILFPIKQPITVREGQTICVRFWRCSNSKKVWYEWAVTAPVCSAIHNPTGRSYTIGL
T1 sequence (Q9BQA1 with tags, fused parts or gaps partner limits assumed): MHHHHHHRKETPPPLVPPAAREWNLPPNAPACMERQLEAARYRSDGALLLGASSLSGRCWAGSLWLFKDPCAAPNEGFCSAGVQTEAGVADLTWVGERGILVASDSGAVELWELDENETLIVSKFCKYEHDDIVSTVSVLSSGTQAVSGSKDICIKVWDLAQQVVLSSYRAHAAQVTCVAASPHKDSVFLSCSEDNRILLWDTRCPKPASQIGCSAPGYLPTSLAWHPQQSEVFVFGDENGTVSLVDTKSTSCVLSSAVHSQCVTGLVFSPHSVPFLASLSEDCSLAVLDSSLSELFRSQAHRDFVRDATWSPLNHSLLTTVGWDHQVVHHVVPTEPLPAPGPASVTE

Which results are given for `CN(C)c1cccc2c(S(=O)(=O)N[C@H]3CC(=O)N(c4ccccc4)C3)cccc12` [Compound 3-4, (S)-5-(dimethylamino)-N-(5-oxo-1-phenylpyrrolidin-3-yl)naphthalene-1-sulfonamide]?
pIC50 (PRMT5/MEP50): > 7.00; pEC50 [1]: > 7.00; pEC50 (Z-138 cells): 5.00 to 6.00

`CN(C)c1cccc2c(S(=O)(=O)NC3CN(Cc4ccccc4)C3)cccc12` [Compound 3-5, N-(1-benzylazetidin-3-yl)-5-(dimethylamino)naphthalene-1-sulfonamide] was tested. Which pIC50 (PRMT5/MEP50) did it give?
The pIC50 was over 7.00.

And the pEC50 [1]?
Its pEC50 is 6.00 to 7.00.

What about the pEC50 (Z-138 cells) of the same compound?
The pEC50 was 4.30 to 5.00.

What does the source list for `CN(C)c1cccc2c(S(=O)(=O)NCCC(N)c3ccccc3)cccc12` (stereo not drawn) [Compound 3-7]?
pIC50 (PRMT5/MEP50): > 7.00; pEC50 [1]: 6.00 to 7.00; pEC50 (Z-138 cells): 4.30 to 5.00

`O=C(NC[C@H](O)CN1CCc2ccccc2C1)c1cc(NC2CCN(CC(F)(F)F)CC2)ncn1` [Compound 3-9] was tested. Which pIC50 (PRMT5/MEP50) did it give?
Its pIC50 is over 7.00.

And the pEC50 [1]?
Its pEC50 is over 7.00.

And the pEC50 (Z-138 cells)?
Its pEC50 is 6.00 to 7.00.

What does the source list for `O=C(NC[C@H](O)CN1Cc2ccccc2C1)c1cc(NC2COC2)ncn1` [Compound 3-11]?
pIC50 (PRMT5/MEP50): 6.00 to 7.00; pEC50 [1]: 6.00 to 7.00; pEC50 (Z-138 cells): 4.30 to 5.00

`Cc1cn(Cc2ccccc2)c(CN)n1` [Compound 3-13] was tested. Which pIC50 (PRMT5/MEP50) did it give?
The pIC50 was 6.00 to 7.00.

And the pEC50 [1]?
The pEC50 was under 6.00.

And the pEC50 (Z-138 cells)?
Its pEC50 is under 5.30.

With `CCOc1c(C)cc(S(=O)(=O)NCC2CCN(Cc3ccccc3Br)CC2)cc1C` [Compound 4-3] as the compound, how does the pIC50 (PRMT5/MEP50) read?
Its pIC50 is 6.00 to 7.00.

What about the pEC50 (Z-138 cells) of the same compound?
Its pEC50 is under 4.70.

How did the pIC50 (PRMT5/MEP50) turn out when `CN(C)c1cccc2c(S(=O)(=O)NC[C@H](N)Cc3ccccc3)cccc12` [Compound 4-7] was run?
Its pIC50 is 6.00 to 7.00.

And the pEC50 [1]?
Its pEC50 is 6.00 to 7.00.

How did the pIC50 (PRMT5/MEP50) turn out when `CCOc1c(C)cc(S(=O)(=O)NCC2CCN(Cc3cccc4c3OCO4)CC2)cc1C` [Compound 5-3] was run?
Its pIC50 is 6.00 to 7.00.

What about the pEC50 (Z-138 cells) of the same compound?
The pEC50 was under 4.70.

With `CCOc1c(C)cc(S(=O)(=O)NCC2CCN(Cc3ccc4ncccc4c3)CC2)cc1C` [Compound 6-3] as the compound, how does the pIC50 (PRMT5/MEP50) read?
Its pIC50 is 6.00 to 7.00.

What about the pEC50 (Z-138 cells) of the same compound?
Its pEC50 is under 4.70.

With `CN(C)c1cccc2c(S(=O)(=O)NC3CC(=O)N(c4cccc(F)c4)C3)cccc12` (stereo not drawn) [Compound 6-4] as the compound, how does the pIC50 (PRMT5/MEP50) read?
Its pIC50 is 6.00 to 7.00.

And the pEC50 [1]?
Its pEC50 is 5.00 to 6.00.

With `CCOc1c(C)cc(S(=O)(=O)NCC2CCN(Cc3ccccc3-c3ccccc3)CC2)cc1C` [Compound 7-3] as the compound, how does the pIC50 (PRMT5/MEP50) read?
Its pIC50 is 6.00 to 7.00.

And the pEC50 (Z-138 cells)?
The pEC50 was under 4.70.

Which results are given for `O=S(=O)(NCC1CCN(Cc2ccco2)CC1)c1ccc(Oc2ccccc2)cc1` [Compound 8-3]?
pIC50 (PRMT5/MEP50): 6.00 to 7.00; pEC50 (Z-138 cells): < 4.70

Which results are given for `CCOc1c(C)cc(S(=O)(=O)NCC2CCN(Cc3c(SC(C)C)nc4sccn34)CC2)cc1C` [Compound 9-3]?
pIC50 (PRMT5/MEP50): > 7.00; pEC50 (Z-138 cells): < 4.70

Which results are given for `CCOc1c(C)cc(S(=O)(=O)NCC2CCN(Cc3ccc4ccccc4c3)CC2)cc1C` [Compound 10-3]?
pIC50 (PRMT5/MEP50): 6.00 to 7.00; pEC50 (Z-138 cells): < 4.70

With `CCOc1c(C)cc(S(=O)(=O)NCC2CCN(Cc3c(-c4ccccc4)[nH]c4ccccc34)CC2)cc1C` [Compound 11-3] as the compound, how does the pIC50 (PRMT5/MEP50) read?
Its pIC50 is 6.00 to 7.00.

What about the pEC50 (Z-138 cells) of the same compound?
Its pEC50 is under 4.70.

How did the pIC50 (PRMT5/MEP50) turn out when `O=S(=O)(NCC1CCN(Cc2ccco2)CC1)c1cccc2c(Cl)cccc12` [Compound 12-3, 5-chloro-N-((1-(furan-2-ylmethyl)piperidin-4-yl)methyl)naphthalene-1-sulfonamide] was run?
The pIC50 was 6.00 to 7.00.

What about the pEC50 [1] of the same compound?
The pEC50 was 4.30 to 5.00.

How did the pIC50 (PRMT5/MEP50) turn out when `CN(C)c1cccc2c(S(=O)(=O)NC3CCN(Cc4ccco4)CC3)cccc12` [Compound 13-3] was run?
The pIC50 was 6.00 to 7.00.

And the pEC50 (Z-138 cells)?
The pEC50 was under 4.70.
